Results: patent US20230321140A1, “MULTIPLE MEDIATORS TARGETED MULTIFUNCTIONAL NANOPARTICLES AND USES THEREOF” (The Trustees of Columbia University in the City of New York, priority 2022, published 2023)

How the values were obtained:
calf thymus DNA = test: PicoGreen DNA binding affinity assay; conditions: TE buffer without FBS; calf thymus DNA 0.5 μg/mL
Procedure: FIGS. 2A-B show DNA binding affinity of NPs at different NP:DNA mass ratios (see legend) in TE buffer without Fetal Bovine Serum (FBS) (A) and with 10% FBS (B). [Calf thymus DNA]=0.5 μg/mL. (C) Cytotoxicity of NPs to RAW 264.7 cells. (D) Colocalization of FITC-labeled TA-Zn-Gen NPs and Cy5-labeled CpG in lysosomes (CLSM images). Scale bar, 10 μm. Quant-iT PicoGreen (12.5 μL) and calf thymus DNA ([…], 25 μL) were mixed with 1×TE buffer (10 mL) in the dark. NPs at different concentrations in 100 μL together with 100 μL of the above solution were added to a 96-well black plate and incubated at 37° C. for 30 min. The fluorescence intensity of the Picogreen-DNA complex at 520 nm was measured with a multiwell plate reader via excitation at 490 nm.

E. coli = test: Antibacterial effect (OD 600 nm); format: cell-based, Escherichia coli; conditions: 6 h and 12 h
Procedure: E. coli was used to investigate the anti-bacterial effect of NPs. E. coli diluted in Luria-Bertani liquid medium were seeded in a 96-well plate at a density of 10^6/mL and were treated with NPs at different concentrations. After 6 h and 12 h of incubation with NPs at 37° C., the proliferation of bacteria was determined with a multiwell plate reader by measuring the OD at 600 nm.

| Compound | DNA binding affinity (calf thymus DNA) | antibacterial activity, NPs versus free components (E. coli) |
| --- | --- | --- |
| O=C(OC[C@H]1O[C@@H](OC(=O)c2cc(O)c(O)c(OC(=O)c3cc(O)c(O)c(O)c3)c2)[C@H](OC(=O)c2cc(O)c(O)c(OC(=O)c3cc(O)c(O)c(O)c3)c2)[C@@H](OC(=O)c2cc(O)c(O)c(OC(=O)c3cc(O)c(O)c(O)c3)c2)[C@@H]1OC(=O)c1cc(O)c(O)c(OC(=O)c2cc(O)c(O)c(O)c2)c1)c1cc(O)c(O)c(OC(=O)c2cc(O)c(O)c(O)c2)c1 [tannic acid] | also exhibited DNA binding | slight antibacterial activity at a high concentration |
| gentamicin |  | potent concentration-dependent antibacterial effect |
